Measured values reported in ChEMBL document CHEMBL4651402, “Screening of ~5500 FDA-approved drugs and clinical candidates for anti-SARS-CoV-2 activity” (2021).
Peptide text beside a SMILES is read from it.

Test system: SARS-CoV-2
Assay: microbe, parasite or virus in culture
Details: Severe acute respiratory syndrome coronavirus 2, Vero C1008, 48 h

Structure (SMILES)	IC50	IC50 (read-out: pIC50 (converted))
COc1ccc(-c2cc(=O)c3c(O)cc(O[C@@H]4O[C@H](CO[C@H]5O[C@H](C)[C@@H](O)[C@H](O)[C@@H]5O)[C@@H](O)[C@H](O)[C@H]4O)cc3o2)cc1O	> 20 µM	> 20 µM
NC(=O)c1ccc(N)nc1 [6-AMINONICOTINAMIDE]	> 20 µM	> 20 µM
CC1Oc2ccccc2CC1N(C)C (stereo not drawn) [TREBENZOMINE]	> 20 µM	> 20 µM
O=C(NCCO[N+](=O)[O-])c1cccnc1 [NICORANDIL]	> 20 µM	> 20 µM
C=C[C@H]1CN2CC[C@H]1C[C@H]2[C@H](O)c1ccnc2ccc(OC)cc12 [QUININE]	> 20 µM	> 20 µM
Cc1c(O)c(=O)n(-c2ccccc2)n1C	> 20 µM	> 20 µM
CN(C(=O)c1c(O)c2ccccc2n(C)c1=O)c1ccccc1 [ROQUINIMEX]	> 20 µM	> 20 µM
NC(=O)OC[C@H](O)c1ccccc1Cl	> 20 µM	> 20 µM
CCOCn1c(Cc2ccccc2)c(C(C)C)c(=O)[nH]c1=O [EMIVIRINE]	> 20 µM	> 20 µM
COc1cc(CCc2cc(NC(=O)c3ccc(N4C[C@@H](C)N[C@@H](C)C4)cc3)n[nH]2)cc(OC)c1 [FEXAGRATINIB]	> 20 µM	> 20 µM
COc1ccc2c(OC)c3ccoc3nc2c1OC [SKIMMIANINE]	> 20 µM	> 20 µM
COc1cc(OC)c2ccc(=O)oc2c1 [CITROPTEN]	> 20 µM	> 20 µM
C=CCC(N)Cc1ccccc1 (stereo not drawn) [ALETAMINE]	> 20 µM	> 20 µM
NC(=O)c1cnccn1 [PYRAZINAMIDE]	> 20 µM	> 20 µM
COc1ccc(C(C)=O)c(O)c1 [PAEONOL]	> 20 µM	> 20 µM
COc1cc(CC(C)N)c(OC)cc1C (stereo not drawn) [DOM]	> 20 µM	> 20 µM
CCCn1cnc2c1c(=O)n(CCCCC(C)=O)c(=O)n2C [PROPENTOFYLLINE]	> 20 µM	> 20 µM
CCN(CC)CC#CCOC(=O)[C@@](O)(c1ccccc1)C1CCCCC1 [ESOXYBUTYNIN]	> 20 µM	> 20 µM
CC(=O)NC1CCSC1=O (stereo not drawn) [CITIOLONE]	> 20 µM	> 20 µM
CCO[C@@H]1O[C@@H]2O[C@@]3(C)CC[C@@H]4[C@H](C)CC[C@@H]([C@H]1C)[C@@]24OO3	> 20 µM	> 20 µM
CS(=N)(=O)CCC(N)C(=O)O (stereo not drawn)	> 20 µM	> 20 µM
Cn1c([N+](=O)[O-])cnc1/C=C/c1ccnc(N)n1 [AZANIDAZOLE]	> 20 µM	> 20 µM
CCOC(C(=O)OCCN(C)C)(c1ccccc1)c1ccccc1 [DIMENOXADOL]	> 20 µM	> 20 µM
CNCCCC1(c2ccccc2)OC(C)(C)c2ccccc21 (stereo not drawn) [TALOPRAM]	> 20 µM	> 20 µM
O=c1c(O)c(-c2cc(O)c(O)c(O)c2)oc2cc(O)cc(O)c12 [MYRICETIN]	> 20 µM	> 20 µM

Structure (SMILES)	IC50	IC50 (read-out: pIC50 (converted))
Cc1ccc(S(N)(=O)=O)cc1 [P-TOLUENESULFONAMIDE]	> 20 µM	> 20 µM
Cc1nc2ccccn2c(=O)c1CCN1CCC(Nc2nc3cccnc3n2Cc2ccco2)CC1 [BARMASTINE]	> 20 µM	> 20 µM
NCCCCCC(=O)O [AMINOCAPROIC ACID]	> 20 µM	> 20 µM
CCOCc1nc2c(N)nc3ccccc3c2n1CC(C)(C)O [RESIQUIMOD]	> 20 µM	> 20 µM
CC(=O)Nc1nnc(S(N)(=O)=O)s1 [ACETAZOLAMIDE]	> 20 µM	> 20 µM
CCC(C)C1OC2(CCC1C)CC1CC(C/C=C(/C)C(OC3CC(OC)C(OC4CC(OC)C(O)C(C)O4)C(C)O3)C(C)/C=C\C=C3\COC4C(O)C(C)=CC(C(=O)O1)C34O)O2 (stereo not drawn)	> 20 µM	> 20 µM
CCN1CCN(c2ccc(Nc3cc(N(C)C(=O)Nc4c(Cl)c(OC)cc(OC)c4Cl)ncn3)cc2)CC1 [INFIGRATINIB]	> 20 µM	> 20 µM
COc1ccc(Cl)cc1NC(=O)Cc1ccc(S(=O)(=O)Nc2ncc(CC(C)C)cn2)cc1	> 20 µM	> 20 µM
CC(=O)C1CCC2C3CC[C@H]4C[C@H](O)CCC4(C)C3C(=O)CC12C (stereo partly drawn)	> 20 µM	> 20 µM
Cc1nc2n(c(=O)c1CCN1CCC(c3noc4cc(F)ccc34)CC1)CCC[C@@H]2O	> 20 µM	> 20 µM
O=[N+]([O-])OCC(CO[N+](=O)[O-])O[N+](=O)[O-] [NITROGLYCERIN]	> 20 µM	> 20 µM
CCCCCCCCCCC[C@@H](C[C@@H]1OC(=O)[C@H]1CCCCCC)OC(=O)[C@H](CC(C)C)NC=O [ORLISTAT]	> 20 µM	> 20 µM
COc1ccc(C2CNC(=O)C2)cc1OCCCN1CCC(C(=O)c2ccc(F)cc2)CC1 (stereo not drawn) [LIDANSERIN]	> 20 µM	> 20 µM
O=C(O)P(=O)(O)O [FOSCARNET]	> 20 µM	> 20 µM
CN1[C@@H](CC(=O)c2ccccc2)CCC[C@H]1C[C@H](O)c1ccccc1 [LOBELINE]	> 20 µM	> 20 µM
COc1cccc(OC)c1-c1ccc(C[C@H](NC(=O)c2c(Cl)cccc2Cl)C(=O)O)cc1	> 20 µM	> 20 µM
CC[C@H](C)C(=O)O[C@H]1C[C@H](O)C=C2C=C[C@H](C)[C@H](CC[C@@H](O)C[C@@H](O)CC(=O)O)[C@H]21 [PRAVASTATIN]	> 20 µM	> 20 µM
CC1=CC(=O)c2ccccc2C1=O [MENADIONE]	> 20 µM	> 20 µM
NCC(O)CC(=O)O (stereo not drawn) [GAMMA-AMINO-BETA-HYDROXYBUTYRIC ACID]	> 20 µM	> 20 µM
C[C@@H](O)[C@H](N)C(=O)O [THREONINE]	> 20 µM	> 20 µM
COc1ccc(-n2nc(CCC(=O)N(C)O)cc2-c2ccc(Cl)cc2)cc1 [TEPOXALIN]	> 20 µM	> 20 µM
N=C(N)NS(=O)(=O)c1ccc(N)cc1 [SULFAGUANIDINE]	> 20 µM	> 20 µM
CN(C)C1C(O)=C(C(N)=O)C(=O)C2(O)C(O)=C3C(=O)c4c(O)ccc(Cl)c4C(C)(O)C3CC12 (stereo not drawn)	> 20 µM	> 20 µM
CCCC(=O)Nc1ncnc2c1ncn2[C@@H]1O[C@@H]2COP(=O)(O)O[C@H]2[C@H]1OC(=O)CCC [BUCLADESINE]	> 20 µM	> 20 µM
C[C@@H]1COC(Nc2ccc3ncnc(Nc4ccc(OCc5nccs5)c(Cl)c4)c3c2)=N1 [VARLITINIB]	> 20 µM	> 20 µM

Structure (SMILES)	IC50	IC50 (read-out: pIC50 (converted))
Nc1nnc(-c2cccc(Cl)c2Cl)c(N)n1 [LAMOTRIGINE]	> 20 µM	> 20 µM
O=C1CN=C(c2ccccc2Cl)c2cc([N+](=O)[O-])ccc2N1 [CLONAZEPAM]	> 20 µM	> 20 µM
C[C@@H]1O[C@@H](O[C@H]2[C@H](Oc3cc(O)c4c(c3)O[C@H](c3ccc(O)cc3)CC4=O)O[C@H](CO)[C@@H](O)[C@@H]2O)[C@H](O)[C@H](O)[C@H]1O [NARINGIN]	> 20 µM	> 20 µM
C=C(C)[C@@H]1[C@@H]2OC(=O)[C@H]1[C@]1(O)C[C@H]3O[C@]34C(=O)O[C@H]2[C@]14C.CC(C)(O)[C@@H]1[C@@H]2OC(=O)[C@H]1[C@]1(O)C[C@H]3O[C@]34C(=O)O[C@H]2[C@]14C	> 20 µM	> 20 µM
CC[C@@H](CO)NCCN[C@@H](CC)CO [ETHAMBUTOL]	> 20 µM	> 20 µM
NCC(CC(=O)O)c1ccccc1 (stereo not drawn) [PHENIBUT]	> 20 µM	> 20 µM
CC(C)C(NC(=O)C(CC(=O)O)NC(=O)C(CCCCN)NC(=O)C(N)CCCNC(=N)N)C(=O)NC(Cc1ccc(O)cc1)C(=O)O (stereo not drawn) (H-RKDVY-OH; configuration not given here)	> 20 µM	> 20 µM
CCC1(c2ccccc2)CCC(=O)NC1=O (stereo not drawn) [GLUTETHIMIDE]	> 20 µM	> 20 µM
CC(C)OC(=O)[C@H](C)N[P@@](=S)(OC[C@H]1O[C@@H](n2ccc(=O)[nH]c2=O)[C@](C)(O)[C@@H]1O)Oc1ccccc1	> 20 µM	> 20 µM
Cc1ccc(S(=O)(=O)Nc2nc3ccccc3nc2Nc2ccc3nsnc3c2)cc1	> 20 µM	> 20 µM
O=C(c1ccc(F)cc1)C1CCN(CCn2c(=O)[nH]c3ccccc3c2=O)CC1 [KETANSERIN]	> 20 µM	> 20 µM
COc1cc([S+](C)[O-])ccc1-c1nc2cccnc2[nH]1 (stereo not drawn) [SULMAZOLE]	> 20 µM	> 20 µM
Nc1c2ccccc2nc2ccccc12 [AMINACRINE]	> 20 µM	> 20 µM
CCOc1ccccc1C(N)=O [ETHENZAMIDE]	> 20 µM	> 20 µM
CC(C)NC1CCC(c2ccccc2)(c2ccccc2)CC1 [PRAMIVERINE]	> 20 µM	> 20 µM
C[C@]12CC[C@H](O)CC1=CC[C@@H]1[C@@H]2CC[C@]2(C)C(c3cccnc3)=CC[C@@H]12 [ABIRATERONE]	> 20 µM	> 20 µM
N[C@H]1C[C@@H]1c1ccccc1 [(+)-TRANYLCYPROMINE]	> 20 µM	> 20 µM
CCOC(=O)N(Cc1ccccc1)C1CC1 [ENCYPRATE]	> 20 µM	> 20 µM
COc1ccc(C(=O)N2CCCC2=O)cc1	> 20 µM	> 20 µM
N=C(N)NCCC[C@H](NC(=O)c1ccc2ccccc2c1O)C(=O)N1CCC[C@H]1C(N)=O	> 20 µM	> 20 µM
C=C(C)[C@@H]1CC[C@]2(C(=O)O)CC[C@]3(C)[C@H](CC[C@@H]4[C@@]5(C)CC[C@H](OC(=O)CC(C)(C)C(=O)O)C(C)(C)[C@@H]5CC[C@]43C)[C@@H]12 [BEVIRIMAT]	> 20 µM	> 20 µM
CC1(C)OC2(C)C(O)CC1CC2O (stereo not drawn) [EPOMEDIOL]	> 20 µM	> 20 µM
CCOC(=O)C1=C(C)NC(C)=C(C(=O)OCC)C1c1cccc2nonc12 [DARODIPINE]	> 20 µM	> 20 µM
Cc1oc(=O)oc1CN1CCN(c2cc3c(cc2F)c(=O)c(C(=O)O)c2n3C(C)S2)CC1 (stereo not drawn) [PRULIFLOXACIN]	> 20 µM	> 20 µM
